Measured values as given in patent US20030125234A1, “Alteration of protein stability” (priority 2001, published 2003).
“Also recorded” adds a separate entry of the source. Residues, ends and D or L forms follow the SMILES beside them.

Tests used:
Assay type in all cases: biochemical
[1] = target: T1, porcine somatotropin (pST) (Sus scrofa, UniProt P01248); test: Porcine somatotropin aggregation (turbidity at 360 nm) with PEG 8000; conditions: pST 1.27 mg/mL, 60° C., standard deviation in parenthesis
T1 construct: purchased Pfizer, Inc., Groton, Conn., USA (provided, not bought)
T1 sequence (P01248 27-216): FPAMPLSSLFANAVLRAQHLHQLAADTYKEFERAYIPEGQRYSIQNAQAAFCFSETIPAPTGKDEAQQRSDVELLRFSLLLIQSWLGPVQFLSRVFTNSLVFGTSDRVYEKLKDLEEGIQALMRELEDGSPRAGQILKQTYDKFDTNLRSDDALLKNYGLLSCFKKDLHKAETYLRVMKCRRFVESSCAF
Summary of the method: (§1)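 OD360 was followed for 1 h against protein without test compound. pST (1.27 mg/mL, pH 6.1 phosphate) at 60° C with 20 mg/mL PEG 8000; lysozyme (0.4 mg/mL, pH 8.2 Tris/EDTA) at 25° C and HLF (0.4 mg/mL, pH 7.4 HEPES) at 43° C with 1.27E-4 M DTT; ADH (1 mg/mL) 37° C, 7.76E-5 M Cu(OP)2.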

[2] = target: T2, chicken egg white lysozyme (Gallus gallus, UniProt P00698); test: Lysozyme aggregation (turbidity at 360 nm) induced by DTT; conditions: for inhibition index: Lysozyme 0.4 mg/mL, 25° C., DTT, compound 1,000×, standard deviation in parenthesis
T2 construct: chicken egg white lysozyme [Sigma]; purchased Sigma; host or cells: egg white
Summary of the method: as §1

[3] = target: human acidic fibroblast growth factor (FGF-1) (Homo sapiens, UniProt P05230); test: FGF-1 thermal aggregation (turbidity at 360 nm); conditions: FGF-1 50 μg/mL, 50° C., standard deviation in parenthesis
Summary of the method: (§2)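 Heat-induced aggregation followed as OD360 for 1 h, cycled every 30 s: citrate synthase 96 μg/mL in HEPES/KCl/(NH4)2SO4 buffer pH 7.8 at 45° C; FGF-1 50 μg/mL in phosphate/NaCl pH 7.2 at 50° C. Rate taken as maximum slope of OD versus time, compared with protein without additive.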

[4] = target: T3, porcine heart citrate synthase (CS) (Sus scrofa, UniProt P00889); test: Citrate synthase thermal aggregation (turbidity at 360 nm); conditions: for inhibition index: CS 96 μg/mL, 45° C., standard deviation in parenthesis
T3 construct: porcine heart citrate synthase (CS); from tissue; host or cells: porcine heart
T3 sequence (P00889 28-464): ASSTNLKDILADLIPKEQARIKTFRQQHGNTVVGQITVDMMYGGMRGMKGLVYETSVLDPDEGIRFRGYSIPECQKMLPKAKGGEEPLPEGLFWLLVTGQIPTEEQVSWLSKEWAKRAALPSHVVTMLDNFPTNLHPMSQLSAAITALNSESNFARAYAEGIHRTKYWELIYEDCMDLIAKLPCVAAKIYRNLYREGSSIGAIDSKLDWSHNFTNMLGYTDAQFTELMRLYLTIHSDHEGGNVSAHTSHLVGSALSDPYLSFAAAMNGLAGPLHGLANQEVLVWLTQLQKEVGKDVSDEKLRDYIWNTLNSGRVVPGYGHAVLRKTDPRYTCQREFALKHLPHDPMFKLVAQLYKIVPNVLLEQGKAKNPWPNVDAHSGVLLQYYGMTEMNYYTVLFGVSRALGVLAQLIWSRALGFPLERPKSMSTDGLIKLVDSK
Summary of the method: as §2

Sequence of human acidic fibroblast growth factor (FGF-1) (P05230 whole entry): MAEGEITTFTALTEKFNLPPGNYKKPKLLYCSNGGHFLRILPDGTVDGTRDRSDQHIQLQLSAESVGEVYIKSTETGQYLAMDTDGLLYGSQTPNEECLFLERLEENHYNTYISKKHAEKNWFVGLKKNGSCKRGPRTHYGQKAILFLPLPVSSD
T2 sequence (P00698 19-147): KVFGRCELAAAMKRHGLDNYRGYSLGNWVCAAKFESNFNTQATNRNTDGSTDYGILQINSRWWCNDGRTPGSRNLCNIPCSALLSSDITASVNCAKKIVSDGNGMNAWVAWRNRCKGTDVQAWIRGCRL

| inhibition index ([1]; compound 100X) | inhibition index ([1]; compound 2,000X) | inhibition index [2] | inhibition index ([3]; compound 1,000×) | inhibition index ([3]; compound 10,000×) | inhibition index ([4]; compound 10,000X) | inhibition index ([4]; compound 50,000X) | inhibition of citrate synthase aggregation, in words [4] | inhibition index ([4]; compound 1,000X) | Compound | inhibition of lysozyme aggregation, in words [2] |
| --- | --- | --- | --- | --- | --- | --- | --- | --- | --- | --- |
| 0.8 (0.1) | 1.5 (0.4) | 2.0 (0.7) | 3.1 (1.0) | 12.1 (8.8) | 1.4 (0.4) | 6.7 (0.1) |  |  | O=C(O)CCCCCC(=O)O [pimelate, pimelic acid] |  |
| 0.7 (0.0) | 1.3 (0.1) | 70.2 (6.8) | 2.2 (0.7) | 3.3 (1.3) | 1.8 (0.5) | 18.5 |  |  | NCCN [ethylenediamine] | effective inhibitors; also recorded: strongly inhibited |
| 0.7 (0.0) | 2.5 (0.3) | 1.6 (0.3) | 2.2 (1.1) | 3.1 (0.9) | 0.7 (0.2) | 1.0 | Potent inhibitors | 1.0 (0.2) | NCC(=O)NCC(=O)NCC(=O)O [triglycine] (H-Gly-Gly-Gly-OH) |  |
| 0.3 (0.0) | 1.1 (0.2) | 1.4 (0.4) | 1.5 (0.0) | 1.4 (0.3) | 0.6 (0.1) | 1.2 (0.4) |  |  | NCCCC(=O)O [4-aminobuytrate, 4-aminobutyric acid] |  |
| 0.6 (0.1) |  | 1.2 (0.7) | 1.3 (0.2) | 7.1 (2.7) | 1.5 (0.1) | 1430.3 | Potent inhibitors | 0.8 (0.1) | Glu-Glu |  |
| 0.4 (0.1) | 0.8 (0.1) | 1.1 (0.3) | 1.1 (0.2) | 1.5 (0.5) | 0.6 (0.1) | 1.9 (0.8) |  |  | NCCC(=O)O [beta-alanine] |  |

| Compound | inhibition index ([1]; compound 100X) | inhibition index ([1]; compound 2,000X) | inhibition index [2] | inhibition index ([3]; compound 1,000×) | inhibition index ([3]; compound 10,000×) | inhibition index ([4]; compound 10,000X) | inhibition index ([4]; compound 50,000X) | inhibition of citrate synthase aggregation, in words [4] | inhibition index ([4]; compound 1,000X) | inhibition of lysozyme aggregation, in words [2] |
| --- | --- | --- | --- | --- | --- | --- | --- | --- | --- | --- |
| O=C([O-])CC(=O)[O-].[Na+].[Na+] [malonate, sodium malonate] | 0.9 (0.1) | 4.9 (0.5) | 1.5 (0.4) | 2.2 (0.4) | 36.6 (29.0) | 2.4 (0.5) | 9 |  |  |  |
